This is an account of results in ChEMBL document CHEMBL1150444, “A new class of diacidic nonpeptide angiotensin II receptor antagonists” (Bioorg Med Chem Lett, 1994).

Test [1] has as its target T1, Type-1 angiotensin II receptor (Bos taurus, UniProt P25104).
T1 sequence (P25104 whole entry): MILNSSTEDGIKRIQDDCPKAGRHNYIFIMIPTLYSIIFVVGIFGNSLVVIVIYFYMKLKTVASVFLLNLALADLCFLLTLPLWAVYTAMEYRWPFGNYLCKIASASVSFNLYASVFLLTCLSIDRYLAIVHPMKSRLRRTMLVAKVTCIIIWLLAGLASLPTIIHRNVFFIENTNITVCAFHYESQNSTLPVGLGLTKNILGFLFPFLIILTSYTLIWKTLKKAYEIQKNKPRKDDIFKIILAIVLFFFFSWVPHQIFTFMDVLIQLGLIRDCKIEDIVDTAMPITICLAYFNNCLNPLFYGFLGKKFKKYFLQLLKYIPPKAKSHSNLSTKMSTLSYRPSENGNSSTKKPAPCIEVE
Kind of test: Concentration required to inhibit [125I]AII binding to Angiotensin II receptor from membrane fractions of bovine adrenal cortex. The format is tissue-based.

Test [2] is filed under the species Oryctolagus cuniculus. Kind of test: In vitro inhibition of contraction of rabbit aorta strips measured as pA2 calculated by the method of Van Rossum. The format is functional. The note with it: read-out: pA2 (converted).
The species entered for test [3] is Oryctolagus cuniculus. Kind of test: In vitro inhibition of contraction of rabbit aorta strips measured as pD2 calculated by the method of Van Rossum. The format is functional.
The species entered for test [4] is Oryctolagus cuniculus. Kind of test: Percent response at a dose of […] on AII induced contraction in isolated rabbit aorta, expressed as percent of maximal response. The format is functional.
The species named for test [5] is Oryctolagus cuniculus. Kind of test: Percent response at a dose of 9M on AII induced contraction in isolated rabbit aorta, expressed as percent of maximal response. Format: functional.
In another test the test system is Rattus norvegicus. Kind of test: Inhibitory effect at a dose of 1mg/gk, po on AII induced pressor response at a dose of 100ng/kg, iv in conscious normotensive rats. The format is functional.
Test [6] is filed under the species Oryctolagus cuniculus. Nature of the test: Percent response at a dose of 8M on AII induced contraction in isolated rabbit aorta, expressed as percent of maximal response. Format: functional.

`CCCCc1nc2c(C)cncc2n1Cc1ccc(-c2ccccc2-c2nnn[nH]2)cc1` gave an IC50 in test [1] of 54 nM. The Kb in the test listed under Oryctolagus cuniculus [2] was 12 nM.
Turning to `CCCc1cn2ncc(C(=O)O)c2n1Cc1ccc(-c2ccccc2-c2nn[nH]n2)cc1`, the IC50 in test [1] amounted to 48 nM. In the test listed under Oryctolagus cuniculus [3], the pD2 is listed as 9.58.
For the molecule `CCOc1nc2ccccc2n1Cc1ccc(-c2ccccc2-c2nnn[nH]2)cc1`, the IC50 in test [1] turned out to be 390 nM. Moreover, in the test filed under Oryctolagus cuniculus [2], the Kb was 11.7 nM.
Consider `CCCc1cn2nccc2n1Cc1ccc(-c2ccccc2-c2nn[nH]n2)cc1`, for which the IC50 in test [1] was 3300 nM. Besides, the Kb in the test listed under Oryctolagus cuniculus [2] was 57.5 nM.
`CCCCc1nc2c(C)cnc(C(=O)O)c2n1Cc1ccc(-c2ccccc2-c2nn[nH]n2)cc1` displayed an IC50 in test [1] of 36 nM. In addition, in the test filed under Oryctolagus cuniculus [3], the pD2 is 9.16.
`CCSc1nc2c(C)sc(C(=O)O)c2n1Cc1ccc(-c2ccccc2-c2nn[nH]n2)cc1`: the IC50 in test [1] was 500 nM. Moreover, the Response was 65% in the test listed under Oryctolagus cuniculus [4] and 25% in the test listed under Oryctolagus cuniculus [5]. Also, the pD2 in the test listed under Oryctolagus cuniculus [3] is recorded as 9.65. Besides, in the test with Rattus norvegicus, the Inhibition came out at 100%.
In test [1], `CCSc1nc2c(C)scc2n1Cc1ccc(-c2ccccc2-c2nn[nH]n2)cc1` returned an IC50 of 1200 nM. Also, the Response in the test listed under Oryctolagus cuniculus [6] and in the test filed under Oryctolagus cuniculus [5] was 85% throughout. The Kb in the test filed under Oryctolagus cuniculus [2] is 5.5 nM. In the test on Rattus norvegicus, this molecule had an Inhibition of 18%.
For `CCOc1nc2cccc(C(=O)O)c2n1Cc1ccc(-c2ccccc2-c2nnn[nH]2)cc1` [CANDESARTAN], in the test listed under Oryctolagus cuniculus [3], the pD2 is 9.97.
